This is an account of results in patent EP4803094A2, “GLP-1/GIP DUAL, GLP-1/GCG DUAL AND GLP-1/GIP/GCG TRIPLE RECEPTOR AGONISTS” (Sun Pharmaceutical Industries Limited, priority 2023, dated 2024).

One assay concerns the target T1, GIPR (Homo sapiens, UniProt P48546).
T1 sequence (P48546 22-466): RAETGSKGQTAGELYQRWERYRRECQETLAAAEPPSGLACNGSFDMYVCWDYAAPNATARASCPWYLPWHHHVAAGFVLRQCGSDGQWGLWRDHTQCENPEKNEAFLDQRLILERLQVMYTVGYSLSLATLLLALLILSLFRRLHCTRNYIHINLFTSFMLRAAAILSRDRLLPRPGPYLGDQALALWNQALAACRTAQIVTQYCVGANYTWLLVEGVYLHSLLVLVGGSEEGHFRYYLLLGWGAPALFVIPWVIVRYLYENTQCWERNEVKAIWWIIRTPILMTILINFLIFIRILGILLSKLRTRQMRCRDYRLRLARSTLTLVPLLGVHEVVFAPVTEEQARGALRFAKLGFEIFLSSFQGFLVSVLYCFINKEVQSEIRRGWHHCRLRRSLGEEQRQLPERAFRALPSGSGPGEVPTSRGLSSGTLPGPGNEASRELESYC
The assay can be described thus: Hit Hunter cAMP assay in cells stably expressing GIPR. The assay is classed as cell-based. The conditions noted are these: values in nM, read-out: EC50 value GIP. An excerpt:
(§1) Stably expressing GLP-1R, GIPR or GCGR cell lines were used to determine in-vitro potency of the compounds as described herein. Signaling by the GLP-1R, GIP-R, and GCG-R involves activation of adenylate cyclase and cAMP production. Hit Hunter® cAMP assays monitor the activation of GLP-1R, GIPR or GCGR via Gi and Gs secondary messenger signaling using a technology developed by DiscoverX which is called Enzyme Fragment Complementation (EFC) with β-galactosidase (β-Gal) as the functional reporter. The enzyme is split into two complementary portions: EA for Enzyme Acceptor and ED for Enzyme Donor. ED is fused to cAMP and in the assay competes with cAMP generated by cells for binding to a cAMP-specific antibody. Active β-Gal is formed by complementation of exogenous EA to any unbound ED cAMP. Active enzyme can then convert a chemiluminescent substrate, generating an output signal detectable on a standard microplate reader. Three different assays were performed using cells expressing either of the three receptors. cAMP Hunter cell lines were expanded from freezer stocks according to standard procedures. […] Microplates were read following signal generation with a PerkinElmer EnvisionTM instrument for chemiluminescent signal detection. […] Four parametric logistic curve was generated and EC50 was determined. […]

A further assay addresses GLP-1R (Homo sapiens, UniProt P43220). The assay can be described thus: Hit Hunter cAMP assay in cells stably expressing GLP-1R. It counts as cell-based. The conditions noted are these: GLP-1R-expressing cells, values in nM.
Source text: as §1

Assay [1] has as its system Type 2 diabetes mouse (db/db) model. The assay can be described thus: Efficacy study in db/db mice (blood glucose, body weight, food consumption). To be noted: 10 nM/kg s.c. single dose, mean (n=6). It counts as in vivo. The procedure:
The effect of the compounds as described herein on blood glucose, food intake and body weight were studied in mice. This study was performed in Type 2 diabetes mouse (db/db) model. The animals were divided into 9 treatment groups (n=6): a diabetic control group, Compound 12 (10 nM/kg), Compound 13 (10 nM/kg), Compound 26 (10 nM/kg), Compound 14 (10 nM/kg), Compound 15 (10 nM/kg), Compound 21 (10 nM/kg), Compound 22 (10 nM/kg), and Tirzepatide (10 nM/kg). Baseline blood glucose was measured from all the animals. All the animals were administered with test item subcutaneously. Blood glucose was measured at 4 hr, 8 hr, 12 hr, 24 hr, 48 hr, 72 hr, and 96 hr post treatment. Delta blood glucose (mM) was calculated. Body weight changes and cumulative food consumption were measured at 48 hr and 96 hr post treatment. Table 3. Effect on Blood Glucose

In a further assay the target is GCGR (Homo sapiens, UniProt P47871). The assay can be described thus: Hit Hunter cAMP assay in cells stably expressing GCGR. The assay is classed as cell-based. The conditions noted are these: values in nM, read-out: EC50 value GCG.
Source text: as §1

Marks after values point to notes of the source that are not given here.

Chain of GLP-1R (P43220 24-463, species assumed): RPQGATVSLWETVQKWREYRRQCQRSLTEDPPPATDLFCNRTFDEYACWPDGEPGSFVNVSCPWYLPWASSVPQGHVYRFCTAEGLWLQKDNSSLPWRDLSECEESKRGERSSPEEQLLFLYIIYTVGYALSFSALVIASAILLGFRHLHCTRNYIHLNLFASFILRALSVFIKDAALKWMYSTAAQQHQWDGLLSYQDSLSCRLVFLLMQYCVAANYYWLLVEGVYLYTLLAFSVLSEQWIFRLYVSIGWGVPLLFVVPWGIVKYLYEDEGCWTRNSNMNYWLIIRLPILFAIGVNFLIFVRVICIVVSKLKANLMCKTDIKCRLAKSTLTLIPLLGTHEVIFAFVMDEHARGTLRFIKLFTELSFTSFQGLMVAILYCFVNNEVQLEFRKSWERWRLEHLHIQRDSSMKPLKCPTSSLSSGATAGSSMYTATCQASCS
Chain of GCGR (P47871 26-477, species assumed): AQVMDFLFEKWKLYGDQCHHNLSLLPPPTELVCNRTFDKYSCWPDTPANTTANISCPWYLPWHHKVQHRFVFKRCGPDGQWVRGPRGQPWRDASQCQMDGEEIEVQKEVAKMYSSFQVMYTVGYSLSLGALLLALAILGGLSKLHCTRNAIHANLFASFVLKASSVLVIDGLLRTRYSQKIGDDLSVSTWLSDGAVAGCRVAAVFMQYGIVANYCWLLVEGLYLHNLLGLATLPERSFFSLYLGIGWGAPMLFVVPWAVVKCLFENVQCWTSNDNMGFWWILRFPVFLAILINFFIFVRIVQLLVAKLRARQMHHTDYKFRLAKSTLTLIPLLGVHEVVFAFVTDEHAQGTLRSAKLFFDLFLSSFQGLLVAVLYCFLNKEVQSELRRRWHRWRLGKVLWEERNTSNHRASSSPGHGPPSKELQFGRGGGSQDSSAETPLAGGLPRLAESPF

Take `CC[C@H](C)[C@H](NC(=O)[C@H](Cc1ccccc1)NC(=O)[C@H](C)NC(=O)C(C)(C)NC(=O)[C@H](CCC(N)=O)NC(=O)[C@H](C)NC(=O)[C@H](CCCCNC(=O)COCCOCCNC(=O)C(C)(C)NC(=O)CC[C@H](NC(=O)CCCCCCCCCCCCCCCCCCC(=O)O)C(=O)O)NC(=O)[C@H](CCCCN)NC(=O)[C@H](CC(=O)O)NC(=O)[C@H](CC(C)C)NC(=O)[C@](C)(CC(C)C)NC(=O)[C@@H](NC(=O)[C@H](CO)NC(=O)[C@H](Cc1ccc(O)cc1)NC(=O)[C@H](CC(=O)O)NC(=O)[C@H](CO)NC(=O)[C@@H](NC(=O)[C@H](Cc1ccccc1)NC(=O)[C@@H](NC(=O)CNC(=O)[C@H](CCC(N)=O)NC(=O)C(C)(C)NC(=O)[C@@H](N)Cc1ccc(O)cc1)[C@@H](C)O)[C@@H](C)O)[C@@H](C)CC)C(=O)N[C@@H](CCC(=O)O)C(=O)N[C@@H](Cc1ccc(O)cc1)C(=O)N[C@@H](CC(C)C)C(=O)N[C@@H](CC(C)C)C(=O)N[C@@H](CCC(=O)O)C(=O)NCC(=O)NCC(=O)N1CCC[C@H]1C(=O)N[C@@H](CO)C(=O)N[C@@H](CO)C(=O)NCC(=O)N[C@@H](C)C(=O)N1CCC[C@H]1C(=O)N1CCC[C@H]1C(=O)N1CCC[C@H]1C(=O)N[C@@H](CO)C(N)=O` [Compound 13]: the EC50 at GIPR is greater than 1.5 nM; on GLP-1R it was greater than 2.4 nM; on GCGR, greater than 1.8 nM. The “Cumulative Food Consumption (g) 0-48 hr” value in assay [1] (0-48 hr) is listed as 4.1*** g. For the same molecule, in assay [1] (0-96 hr), the “Cumulative Food Consumption (g) 0-96 hr” value is recorded as 11.2*** g. Further, the “Delta Blood Glucose (mM)” value is listed as -7.4* mM in assay [1] (4 hr post treatment); -9.4** mM in assay [1] (12 hr post treatment); -14.4*** mM in assay [1] (24 hr post treatment); -13.9*** mM in assay [1] (48 hr post treatment); -12.1*** mM in assay [1] (72 hr post treatment). Moreover, the figures for the “Delta Blood Glucose” value in assay [1] (8 hr post treatment) and in assay [1] (96 hr post treatment) were -5.7 mM and -5.6 mM, respectively. In addition, in assay [1] (48 hr), the “Body Weight Change (%) 48 hr” value is recorded as -10.3*** %. The “Body Weight Change (%) 96 hr” value in assay [1] (96 hr) is recorded as -6.3*** %.
